{"source": "PubChem BioAssay AID248", "about": "(DTP/NCI, 2004)", "system": "L1210 leukemia ip in BDF1 mice, survival T/C", "assay": "NCI In Vivo Anticancer Drug Screen. Data for tumor model L1210 Leukemia (intraperitoneal) in B6D2F1 (BDF1) mice", "details": "endpoint: mean survival time, higher = longer survival", "summary_of_the_method": "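Tumor cells were implanted, animals were treated, and survival was followed. The result divides the treated measurement by the vehicle-control measurement.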", "note": "“And” between values parts separate entries of the source, which are not always exact repeats. Equal entries are not always repeated. Toxic doses and inconclusive results are not listed."}
{"smiles": "O=P(N1CCCCC1)(N1CC1)N1CC1", "values": [{"measurement": "T/C", "setting": "dose: 0.5 mg/kg/injection, schedule: Q01DX Z (ip), vehicle: saline", "value": "117 % of control"}, {"measurement": "T/C", "setting": "dose: 2.0 mg/kg/injection, schedule: Q01DX Z (ip), vehicle: saline", "value": "158 % of control"}, {"measurement": "T/C", "setting": "dose: 3.8 mg/kg/injection, schedule: Q01DX015 (ip), vehicle: saline", "value": "106 % of control"}, {"measurement": "T/C", "setting": "dose: 4.0 mg/kg/injection, schedule: Q01DX011 (ip), vehicle: saline", "value": "113 % of control"}, {"measurement": "T/C", "setting": "dose: 5.0 mg/kg/injection, schedule: Q01DX001 (ip), vehicle: saline", "value": "107 % of control"}, {"measurement": "T/C", "setting": "dose: 6.0 mg/kg/injection, schedule: Q01DX Z (ip), vehicle: saline", "value": "202 % of control"}, {"measurement": "T/C", "setting": "dose: 7.5 mg/kg/injection, schedule: Q01DX015 (ip), vehicle: saline", "value": "124 % of control"}, {"measurement": "T/C", "setting": "dose: 8.0 mg/kg/injection, schedule: Q01DX011 (ip), vehicle: saline", "value": "150 % of control"}, {"measurement": "T/C", "setting": "dose: 9.0 mg/kg/injection, schedule: Q01DX Z (ip), vehicle: saline", "value": "94 % of control"}, {"measurement": "T/C", "setting": "dose: 10.0 mg/kg/injection, schedule: Q01DX001 (ip), vehicle: saline", "value": "100 % of control"}, {"measurement": "T/C", "setting": "dose: 13.5 mg/kg/injection, schedule: Q01DX Z (ip), vehicle: saline", "value": "94 % of control"}, {"measurement": "T/C", "setting": "dose: 15.0 mg/kg/injection, schedule: Q01DX011 (ip), vehicle: saline", "value": "95 % of control"}, {"measurement": "T/C", "setting": "dose: 20.0 mg/kg/injection, schedule: Q01DX001 (ip), vehicle: saline", "value": "122 % of control"}, {"measurement": "T/C", "setting": "dose: 21.0 mg/kg/injection, schedule: Q01DX Z (ip), vehicle: saline", "value": "114 % of control"}, {"measurement": "T/C", "setting": "dose: 30.0 mg/kg/injection, schedule: Q01DX015 (ip), vehicle: saline", "value": "106 % of control"}, {"measurement": "T/C", "setting": "dose: 40.0 mg/kg/injection, schedule: Q01DX001 (ip), vehicle: saline", "value": "169 % of control"}]}
{"smiles": "O=C(O)C1(c2ccc(-c3ccccc3)cc2)CCCCC1", "values": [{"measurement": "T/C", "setting": "dose: 100.0 mg/kg/injection, schedule: Q04DX003 (ip), vehicle: saline with Tween-80", "value": "96 % of control"}, {"measurement": "T/C", "setting": "dose: 200.0 mg/kg/injection, schedule: Q04DX003 (ip), vehicle: saline with Tween-80", "value": "96 % of control"}, {"measurement": "T/C", "setting": "dose: 400.0 mg/kg/injection, schedule: Q04DX003 (ip), vehicle: saline with Tween-80", "value": "100 % of control"}]}
{"smiles": "CC(O)COCc1ccccc1", "note": "(configuration not stated)", "values": [{"measurement": "T/C", "setting": "dose: 100.0 mg/kg/injection, schedule: Q01DX009 (ip), vehicle: saline", "value": "103 % of control"}, {"measurement": "T/C", "setting": "dose: 100.0 mg/kg/injection, schedule: Q04DX003 (ip), vehicle: saline", "value": "94 % of control"}, {"measurement": "T/C", "setting": "dose: 200.0 mg/kg/injection, schedule: Q01DX009 (ip), vehicle: saline", "value": "94 % of control"}, {"measurement": "T/C", "setting": "dose: 200.0 mg/kg/injection, schedule: Q04DX003 (ip), vehicle: saline", "value": "94 % of control"}, {"measurement": "T/C", "setting": "dose: 400.0 mg/kg/injection, schedule: Q01DX009 (ip), vehicle: saline", "value": "97 % of control"}, {"measurement": "T/C", "setting": "dose: 400.0 mg/kg/injection, schedule: Q04DX003 (ip), vehicle: saline", "value": "90 % of control"}]}
{"smiles": "O=C(CNC(=O)c1ccccc1)Oc1c(Cl)c(Cl)c(Cl)c(Cl)c1Cl", "values": [{"measurement": "T/C", "setting": "dose: 100.0 mg/kg/injection, schedule: Q01DX009 (ip), vehicle: other", "value": "104 % of control"}, {"measurement": "T/C", "setting": "dose: 200.0 mg/kg/injection, schedule: Q01DX009 (ip), vehicle: other", "value": "98 % of control"}, {"measurement": "T/C", "setting": "dose: 400.0 mg/kg/injection, schedule: Q01DX009 (ip), vehicle: other", "value": "93 % of control"}]}
{"smiles": "S=C1NC2CCCc3ccccc3C2O1", "note": "(configuration not stated)", "values": [{"measurement": "T/C", "setting": "dose: 100.0 mg/kg/injection, schedule: Q04DX003 (ip), vehicle: Klucel (hydroxypropylcellulose) (HPC)", "value": "111 % of control"}, {"measurement": "T/C", "setting": "dose: 200.0 mg/kg/injection, schedule: Q04DX003 (ip), vehicle: Klucel (hydroxypropylcellulose) (HPC)", "value": "113 % of control"}, {"measurement": "T/C", "setting": "dose: 400.0 mg/kg/injection, schedule: Q04DX003 (ip), vehicle: Klucel (hydroxypropylcellulose) (HPC)", "value": "107 % of control"}]}
{"smiles": "[Cl][Ni].[NH-]C(Cc1ccccc1)C(=O)O", "note": "(configuration not stated)", "values": [{"measurement": "T/C", "setting": "dose: 6.25 mg/kg/injection, schedule: Q04DX003 (ip), vehicle: saline", "value": "98 % of control"}, {"measurement": "T/C", "setting": "dose: 12.5 mg/kg/injection, schedule: Q04DX003 (ip), vehicle: saline", "value": "98 % of control"}, {"measurement": "T/C", "setting": "dose: 25.0 mg/kg/injection, schedule: Q04DX003 (ip), vehicle: saline", "value": "91 % of control"}]}
{"smiles": "O=C(/C=C/c1ccccc1)NC(=S)Nc1ncccn1", "values": [{"measurement": "T/C", "setting": "dose: 100.0 mg/kg/injection, schedule: Q01DX009 (ip), vehicle: carboxymethylcellulose (CMC)", "value": "93 % of control and 96 % of control"}, {"measurement": "T/C", "setting": "dose: 100.0 mg/kg/injection, schedule: Q04DX002 (ip), vehicle: carboxymethylcellulose (CMC)", "value": "96 % of control and 104 % of control"}, {"measurement": "T/C", "setting": "dose: 100.0 mg/kg/injection, schedule: Q04DX003 (ip), vehicle: carboxymethylcellulose (CMC)", "value": "94 % of control"}, {"measurement": "T/C", "setting": "dose: 200.0 mg/kg/injection, schedule: Q01DX009 (ip), vehicle: carboxymethylcellulose (CMC)", "value": "92 % of control and 96 % of control"}, {"measurement": "T/C", "setting": "dose: 200.0 mg/kg/injection, schedule: Q04DX002 (ip), vehicle: carboxymethylcellulose (CMC)", "value": "96 % of control and 98 % of control"}, {"measurement": "T/C", "setting": "dose: 200.0 mg/kg/injection, schedule: Q04DX003 (ip), vehicle: carboxymethylcellulose (CMC)", "value": "91 % of control"}, {"measurement": "T/C", "setting": "dose: 400.0 mg/kg/injection, schedule: Q01DX009 (ip), vehicle: carboxymethylcellulose (CMC)", "value": "96 % of control and 104 % of control"}, {"measurement": "T/C", "setting": "dose: 400.0 mg/kg/injection, schedule: Q04DX002 (ip), vehicle: carboxymethylcellulose (CMC)", "value": "96 % of control and 91 % of control"}]}
